These results are taken from US6784309B2, “Method for the purification of N-[N-(3,3-dimethylbutyl)-L-α-aspartyl]-L-phenylalanine 1-methyl ester” (The Nutrasweet Company, priority 1999, dated 2004).

Structures are written as SMILES.

Series [1] in a line: solubility compared to neotame. The class given is physicochemical. Particulars: relative to neotame; for solubility compared to neotame: crystallization context.
For series [2] the following is noted: relative to sucrose; cited from earlier work.

Turning to `CC(C)(C)CCN[C@@H](CC(=O)O)C(=O)N[C@@H](Cc1ccccc1)C(=O)O` [demethylated α-neotame, N-[N-(3,3-dimethylbutyl)-L-α-aspartyl]-L-phenylalanine], the “solubility in water compared to neotame” value in series [1] (water) was “more soluble in water”.
As to `COC(=O)[C@H](Cc1ccccc1)NC(=O)[C@H](CC(=O)O)N(CCC(C)(C)C)CCC(C)(C)C` [dialkylated aspartame, N,N-di(3,3-dimethylbutyl)-L-aspartyl-L-phenylalanine methyl ester], the “solubility compared to neotame” value in series [1] is listed as “very similar solubilities”.
On the same count and under the same terms, under `COC(=O)[C@H](Cc1ccccc1)N1C(=O)C(CC(=O)O)N(CCC(C)(C)C)C1CC(C)(C)C` (stereo partly drawn) [dialkylated imidazolidinone, α-methyl hydrogen-3-(3,3-dimethylbutyl)-2-L-(2,2-dimethylpropyl)-5-oxo-α-L-(phenylmethyl)-1,4(L)-imidazolidine diacetate] stands “very similar solubilities”; under `COC(=O)C[C@H](NCCC(C)(C)C)C(=O)NC(Cc1ccccc1)C(=O)OC` (stereo partly drawn) [methyl ester of α-neotame, methyl ester of N-[N-(3,3-dimethylbutyl)-L-α-aspartyl]-L-phenylalanine 1-methyl ester], “very similar solubilities”.
For the compound `COC(=O)C(Cc1ccccc1)NC(=O)C(CC(=O)O)NCCC(C)(C)C` [neotame, N-[N-(3,3-dimethylbutyl)-L-α-aspartyl]-L-phenylalanine 1-methyl ester], the “sweetness potency (sweeter than sucrose)” value in series [2] is on record as “about 8000 X”.
